Values of other authors in patent US11707272B2, “Packaged antimicrobial medical device having improved shelf life and method of preparing same” (ETHICON, LLC, priority 2012, dated 2023).

Tested on: S. aureus
Settings: measured in a suitable growth medium; as described by Bhargava, H. et al, American Journal of Infection Control, June 1996

Oc1cc(Cl)ccc1Oc1ccc(Cl)cc1Cl [2,4,4′-trichloro-2′-hydroxydiphenyl ether]
minimum inhibitory concentration (MIC) against S. aureus: 0.01 ppm
